Results taken from US20060178374A1, “Aminoheteroaryl compounds as protein kinase inhibitors” (AGOURON PHARMACEUTICALS, INC., priority 2004, published 2006).

Target: HGFR (c-Met) (Homo sapiens, UniProt P08581)
Assay: HGFR Continuous-Coupled Spectrophotometric Assay
Format: biochemical
Details: for Ki: HGFR enzyme 50 nM, Met-2 peptide substrate, 37° C.
Experimental: The general procedure is as follows: compounds and kinase assay reagents are introduced into test wells. The assay is initiated by addition of the kinase enzyme. Enzyme inhibitors reduce the measured activity of the enzyme.
In the continuous-coupled spectrophotometric assay the time-dependent production of ADP by the kinase is determined by analysis of the rate of consumption of NADH by measurement of the decrease in absorbance at 340 nm. As the PK produces ADP it is re-converted to ATP by reaction with phosphoenol pyruvate and pyruvate kinase. Pyruvate is also produced in this reaction. Pyruvate is subsequently converted to lactate by reaction with lactate dehydrogenase, which simultaneously converts NADH to NAD.
HGFR Continuous-Coupled Spectrophotometric Assay
This assay analyzes the tyrosine kinase activity of HGFR on the Met-2 substrate peptide, a peptide derived from the activation loop of the HGFR.
• 1. […] Dissolve up in 200 mM HEPES, pH 7.5 at 10 mM stock. • 3. 1 M PEP (phospho-enol-pyruvate) in 200 mM HEPES, pH 7.5 • 4. 100 mM NADH (B-Nicotinamide Adenine Dinucleotide, Reduced Form) in 200 mM HEPES, pH 7.5 • 5. 4 M MgCl2 (Magnesium Chloride) in ddH2O 6. 1 M DTT (Dithiothreitol) in 200 mM HEPES, pH 7.5 • 7. 15 Units/mL LDH (Lactic Dehydrogenase) • 8. 15 Units/mL PK (Pyruvate Kinase) • 9. 5M NaCl dissolved in ddH2O • 10. Tween-20 (Protein Grade) 10% Solution • 11. 1 M HEPES buffer: (N-[2-Hydroxethyl]piperazine-N-[2-ethanesulfonic acid]) Sodium Salt. Dissolve in ddH2O, adjust pH to 7.5, bring volume to 1 L. Filter at 0.1 μm. • 12. […] 100% DMSO (SIGMA) • 14. […] Beckman DU-650 w/ micro cell holders • 18. Beckman 4-position micro cell cuvette Procedure:
Prep Dilution Buffer (DB) for Enzyme (For 30 mL prep) • 1. DB final concentration is 2 mM DTT, 25 mM NaCl2, 5 mM MgCl2, 0.01% Tween-20, and 50 mM HEPES buffer, pH 7.5. • 2. Make up 50 mM HEPES by adding 1.5 mL 1 M HEPES into 28.1 mL of ddH2O. Add rest of the reagents. Into 50 mL conical vial, add 60 μL of 1M DTT, 150 μL 5M NaCl2, 150 μL 1M MgCl2, and 30 μL of 10% Tween-20 to give total volume of 30 mL. • 3. Vortex for 5-10 seconds. • 4. Aliquot out DB at 1 mL/tube and label tubes as “DB HGFR” • 5. Note: This can be prepared and stored ahead of time. • 6. Freeze un-used aliquots in microcentrifuge tubes at −20° C. freezer.
Prep Compounds • 1. For compound dilution plate, add 4 μL of 10 mM stock into column 1 of plate, and bring volume to 100 μL with 100% DMSO. • 2. Set up the Precision 2000 dilution method. A final concentration of 200 μM compound in 50% DMSO, 100 mM HEPES (1:2 serial dilution).
Prep Coupled Enzymatic Buffer:
1. Final concentration in assay:
• 2. For a 10 mL reaction buffer add 10 μL of 1M PEP, 33 μL of 100 mM NADH, 50 μL of 4M MgCl2, 20 μL of 1M DTT, 6 μL of 500 mM ATP, and […] of 10 mM Met-2 peptide into 100 mM HEPES buffer pH 7.5 and vortex/mix. • 3. Add coupling enzymes, LDH and PK, into reaction mix. Mix by gentle inversion.
1. Spectrophotometer settings:
• 2. Add 85 μL of CE reaction mix into each well of assay plate. • 3. Add 5 μL of diluted compound into a well of the assay plate. • 4. Add 5 μL of 50% DMSO for negative control into last column of assay plate. • 5. Mix with multi-channel pipettor or orbital shaker. • 6. Pre-incubate for 10 minutes at 37° C. • 7. Add 10 μL of 500 nM HGFR to each well of assay plate; the final HGFR concentration is 50 nM in a total final volume of 100 μL. • 8. Measure activity for 10 minutes at λ=340 nm and 37° C.
Ki data were obtained using the HGFR Continuous-Coupled Spectrophotometric Assay, and IC50 data were obtained using the Cellular HGFR Autophosphorylation Assay, both of which are described above.

HGFR (c-Met), sequence (P08581 974-1390): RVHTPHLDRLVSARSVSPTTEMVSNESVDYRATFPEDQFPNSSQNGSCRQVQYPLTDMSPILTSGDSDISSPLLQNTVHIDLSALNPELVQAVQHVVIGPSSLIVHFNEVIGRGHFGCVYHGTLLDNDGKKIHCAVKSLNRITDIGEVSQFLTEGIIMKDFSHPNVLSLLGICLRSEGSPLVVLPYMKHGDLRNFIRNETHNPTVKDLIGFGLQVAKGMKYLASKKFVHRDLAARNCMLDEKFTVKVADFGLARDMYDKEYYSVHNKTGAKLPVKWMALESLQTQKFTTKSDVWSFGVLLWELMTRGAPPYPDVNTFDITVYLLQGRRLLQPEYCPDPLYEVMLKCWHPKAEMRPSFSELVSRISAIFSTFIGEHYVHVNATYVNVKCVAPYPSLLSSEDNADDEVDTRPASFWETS

Structure (SMILES) | Ki [nM] | inhibition at 1 µM (compound at 1 μM) [%]
COc1cc(-c2cnc(N)c(OC(C)c3c(Cl)ccc(F)c3Cl)c2)ccc1CN1CCNCC1 (stereo not drawn) [Example 29, 3-[1-(2,6-dichloro-3-fluorophenyl)ethoxy]-5-[3-methoxy-4-(piperazin-1-ylmethyl)phenyl]pyridin-2-amine] | 12.3 | 
CC(Oc1cc(-c2ccc(C3(O)CCNCC3)nc2)cnc1N)c1c(Cl)ccc(F)c1Cl (stereo not drawn) [Example 30] | 21.9 | 
CC(Oc1cc(-c2ccc(OCC(=O)N3CCNCC3)cc2)cnc1N)c1c(Cl)ccc(F)c1Cl (stereo not drawn) [Example 33, 2-(4-{6-Amino-5-[1-(2,6-dichloro-3-fluoro-phenyl)-ethoxy]-pyridin-3-yl}-phenoxy)-1-piperazin-1-yl-ethanone] | 14700 | 
CC(Oc1cc(-c2ccc(OC3CCNCC3)cc2)cnc1N)c1c(Cl)ccc(F)c1Cl (stereo not drawn) [Example 34, 3-[1-(2,6-Dichloro-3-fluoro-phenyl)-ethoxy]-5-[4-(piperidin-4-yloxy)-phenyl]-pyridin-2-ylamine] | 40 | 
Nc1ncc(Br)cc1OC1CCCCc2ccc(F)cc21 (stereo not drawn) [Example 35, 5-Bromo-3-(3-fluoro-6,7,8,9-tetrahydro-5H-benzocyclohepten-5-yloxy)-pyridin-2-ylamine] |  | 9
C[C@@H]1CN(C(=O)c2ccc(-c3cnc(N)c(OC4CCCCc5ccc(F)cc54)c3)cc2)C[C@H](C)N1 (stereo partly drawn) [Example 36, {4-[6-Amino-5-(3-fluoro-6,7,8,9-tetrahydro-5H-benzocyclohepten-5-yloxy)-pyridin-3-yl]-phenyl}-((3R,5S)-3,5-dimethyl-piperazin-1-yl)-methanone] | 6280 | 
Nc1ncc(-c2ccc(OCCN3CCCC3)cc2)cc1OC1CCCCc2ccc(F)cc21 (stereo not drawn) [Example 37, 3-(3-Fluoro-6,7,8,9-tetrahydro-5H-benzocyclohepten-5-yloxy)-5-[4-(2-pyrrolidin-1-yl-ethoxy)-phenyl]-pyridin-2-ylamine] | 8270 | 
CS(=O)(=O)Nc1ccc(-c2cnc(N)c(OC3CCCCc4ccc(F)cc43)c2)cc1 (stereo not drawn) [Example 38, N-{4-[6-Amino-5-(3-fluoro-6,7,8,9-tetrahydro-5H-benzocyclohepten-5-yloxy)-pyridin-3-yl]-phenyl}-methanesulfonamide] | 7120 | 
CC(Oc1cc(-c2ccc(NC(=O)N3CCC(NC4CC4)CC3)cc2)cnc1N)c1c(Cl)ccc(F)c1Cl (stereo not drawn) [Example 39, 4-Cyclopropylamino-piperidine-1-carboxylic acid (4-{6-amino-5-[1-(2,6-dichloro-3-fluoro-phenyl)-ethoxy]-pyridin-3-yl}-phenyl)-amide] | 95 | 
C[C@@H](Oc1nc(-c2ccc(C(=O)O)cc2)cnc1N)c1c(Cl)ccc(F)c1Cl [Example 47, 4-{5-Amino-6-[(R)-1-(2,6-dichloro-3-fluoro-phenyl)-ethoxy]-pyrazin-2-yl}-benzoic acid] | 154 | 
C[C@@H](Oc1nc(-c2ccc(C(=O)N3CCNCC3)cc2)cnc1N)c1c(Cl)ccc(F)c1Cl [Example 48, (4-{5-Amino-6-[(R)-1-(2,6-dichloro-3-fluoro-phenyl)-ethoxy]-pyrazin-2-yl}-phenyl)-piperazin-1-yl-methanone] | 27 | 
C[C@@H](Oc1nc(-c2ccc(C(=O)N3CCN(C(=O)OC(C)(C)C)CC3)cc2)cnc1N)c1c(Cl)ccc(F)c1Cl [Example 49, 4-(4-{5-Amino-6-[(R)-1-(2,6-dichloro-3-fluoro-phenyl)-ethoxy]-pyrazin-2-yl}-benzoyl)-piperazine-1-carboxylic acid tert-butyl ester] | 335 | 
CC(Oc1cc(Br)cnc1N)c1c(C#N)ccc(N(C)C)c1Cl (stereo not drawn) [Example 50, 2-{1-[(2-amino-5-bromopyridin-3-yl)oxy]ethyl}-3-chloro-4-(dimethylamino)benzonitrile] | 1840 | 
CC(Oc1cc(Br)cnc1N)c1c(C#N)ccc(F)c1Cl (stereo not drawn) [Example 51, 2-[1-(2-Amino-5-bromo-pyridin-3-yloxy)-ethyl]-3-chloro-4-fluoro-benzonitrile] | 2090 | 
CC(Oc1cc(-c2ccc(C(=O)N3CCC(N4CCCC4)CC3)cc2)cnc1N)c1ccc(Cl)cc1Cl (stereo not drawn) [Example 52, (4-{6-Amino-5-[1-(2,4-dichloro-phenyl)-ethoxy]-pyridin-3-yl}-phenyl)-(4-pyrrolidin-1-yl-piperidin-1-yl)-methanone] | 2140 | 

Results, then the compound that gave them:

Ki [nM] | inhibition at 1 µM (compound at 1 μM) [%] | Structure (SMILES)
21.6 |  | COc1cc(-c2cnc(N)c(OC(C)c3c(Cl)ccc(F)c3Cl)c2)ccc1CN1C[C@@H](C)N[C@@H](C)C1 (stereo partly drawn) [Example 27, 3-[1-(2,6-dichloro-3-fluorophenyl)ethoxy]-5-(4-{[(3R,5S)-3,5-dimethylpiperazin-1-yl]methyl}-3-methoxyphenyl)pyridin-2-amine]
26.4 |  | COc1cc(-c2cnc(N)c(OC(C)c3c(Cl)ccc(F)c3Cl)c2)ccc1C(=O)N1CCNCC1 (stereo not drawn) [Example 28, 3-[1-(2,6-dichloro-3-fluorophenyl)ethoxy]-5-[3-methoxy-4-(piperazin-1-ylcarbonyl)phenyl]pyridin-2-amine]
149 |  | COc1cc(-c2cnc(N)c(OC(C)c3c(Cl)ccc(F)c3Cl)c2)ccc1COC(=O)N(C)C (stereo not drawn) [Example 31, 4-{6-amino-5-[1-(2,6-dichloro-3-fluorophenyl)ethoxy]pyridin-3-yl}-2-methoxybenzyl dimethylcarbamate]
88 |  | CC(Oc1cc(-c2ccc(NC(=O)N3CCNCC3)cc2)cnc1N)c1c(Cl)ccc(F)c1Cl (stereo not drawn) [Example 40, Piperazine-1-carboxylic acid (4-{6-amino-5-[1-(2,6-dichloro-3-fluoro-phenyl)-ethoxy]-pyridin-3-yl}-phenyl)-amide]
2090 |  | CCOC(=O)c1[nH]c(C)c(-c2cnc(N)c(OC(C)c3c(Cl)ccc(F)c3Cl)c2)c1C (stereo not drawn) [Example 41, 4-{6-Amino-5-[1-(2,6-dichloro-3-fluoro-phenyl)-ethoxy]-pyridin-3-yl}-3,5-dimethyl-1H-pyrrole-2-carboxylic acid ethyl ester]
1250 |  | Cc1[nH]c(C(=O)O)c(C)c1-c1cnc(N)c(OC(C)c2c(Cl)ccc(F)c2Cl)c1 (stereo not drawn) [Example 42, 4-{6-Amino-5-[1-(2,6-dichloro-3-fluoro-phenyl)-ethoxy]-pyridin-3-yl}-3,5-dimethyl-1H-pyrrole-2-carboxylic acid]
451 |  | Cc1[nH]c(C(=O)NCCCN(C)C)c(C)c1-c1cnc(N)c(OC(C)c2c(Cl)ccc(F)c2Cl)c1 (stereo not drawn) [Example 43, 4-{6-Amino-5-[1-(2,6-dichloro-3-fluoro-phenyl)-ethoxy]-pyridin-3-yl}-3,5-dimethyl-1H-pyrrole-2-carboxylic acid (3-dimethylamino-propyl)-amide]
262 |  | Cc1[nH]c(C(=O)NCCN(C)C)c(C)c1-c1cnc(N)c(OC(C)c2c(Cl)ccc(F)c2Cl)c1 (stereo not drawn) [Example 44, 4-{6-Amino-5-[1-(2,6-dichloro-3-fluoro-phenyl)-ethoxy]-pyridin-3-yl}-3,5-dimethyl-1H-pyrrole-2-carboxylic acid (2-dimethylamino-ethyl)-amide]
96 |  | CC(Oc1cc(-c2cccc(NC(=O)N3CCNCC3)c2)cnc1N)c1c(Cl)ccc(F)c1Cl (stereo not drawn) [Example 45, Piperazine-1-carboxylic acid (3-{6-amino-5-[1-(2,6-dichloro-3-fluoro-phenyl)-ethoxy]-pyridin-3-yl}-phenyl)-amide]
